Data on one compound can be found in paper PMC3171408, “Analysis of the BarA/UvrY Two-Component System in Shewanella oneidensis MR-1” (PLoS ONE, 2011).

This assay deals with T1, BarA(181–929) (Shewanella oneidensis, UniProt Q8EBQ2).
T1 construct: cytoplasmic region aa 181-929 of 929 aa (full length 103 kDa; two N-terminal TM domains removed), N-terminal 6xHis tag (pBAD-HisA), expressed in E. coli, Ni-NTA purified
T1 sequence (Q8EBQ2 187-935): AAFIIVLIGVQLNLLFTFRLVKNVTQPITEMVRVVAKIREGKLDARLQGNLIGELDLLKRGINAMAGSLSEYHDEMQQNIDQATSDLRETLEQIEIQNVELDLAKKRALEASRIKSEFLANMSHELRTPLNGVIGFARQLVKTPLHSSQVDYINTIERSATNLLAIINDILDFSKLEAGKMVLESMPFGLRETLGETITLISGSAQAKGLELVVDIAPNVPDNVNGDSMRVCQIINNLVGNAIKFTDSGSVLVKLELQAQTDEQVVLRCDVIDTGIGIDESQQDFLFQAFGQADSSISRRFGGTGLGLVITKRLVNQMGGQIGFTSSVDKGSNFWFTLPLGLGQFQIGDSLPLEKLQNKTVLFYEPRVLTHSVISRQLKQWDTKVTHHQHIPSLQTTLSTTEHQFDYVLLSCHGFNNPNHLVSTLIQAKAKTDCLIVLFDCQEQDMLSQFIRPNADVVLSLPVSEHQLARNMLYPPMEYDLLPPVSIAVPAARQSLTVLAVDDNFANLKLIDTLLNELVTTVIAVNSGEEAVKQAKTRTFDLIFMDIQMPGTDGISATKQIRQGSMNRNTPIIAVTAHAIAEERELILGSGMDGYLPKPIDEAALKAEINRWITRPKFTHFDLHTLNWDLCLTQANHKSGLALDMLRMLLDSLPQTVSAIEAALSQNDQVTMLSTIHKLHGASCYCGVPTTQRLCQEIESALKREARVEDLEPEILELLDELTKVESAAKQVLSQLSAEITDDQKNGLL
Description: autophosphorylation, SDS-PAGE autoradiography. Format: biochemical. The conditions noted are these: 0.5 mM ATP, 10 µM protein, 5 mM MgCl2, 50 mM KCl, pH 8.0, room temperature; labelled compound.

For `Nc1ncnc2c1ncn2[C@@H]1O[C@H](COP(=O)(O)OP(=O)(O)OP(=O)(O)O)[C@@H](O)[C@H]1O` [[γ-^32P]ATP], the “autophosphorylation, SDS-PAGE autoradiography” value is recorded as “BarA was readily phosphorylated, indicating autophosphorylation activity of the kinase region”.
